Earlier results, collected in patent US20120282337A1, “Modified Release Formulation” (BOEHRINGER INGELHEIM INTERNATIONAL GMBH, priority 2006, published 2012).
Structures can show the parent of a compound that is named as a salt.

Tests used:
dopamine D2 receptor = dopamine D2 receptor (Homo sapiens, UniProt P14416)
[1] = in vivo
[2] = not given; remark: listed apart in the source

Sequence of dopamine D2 receptor (P14416 whole entry, species assumed): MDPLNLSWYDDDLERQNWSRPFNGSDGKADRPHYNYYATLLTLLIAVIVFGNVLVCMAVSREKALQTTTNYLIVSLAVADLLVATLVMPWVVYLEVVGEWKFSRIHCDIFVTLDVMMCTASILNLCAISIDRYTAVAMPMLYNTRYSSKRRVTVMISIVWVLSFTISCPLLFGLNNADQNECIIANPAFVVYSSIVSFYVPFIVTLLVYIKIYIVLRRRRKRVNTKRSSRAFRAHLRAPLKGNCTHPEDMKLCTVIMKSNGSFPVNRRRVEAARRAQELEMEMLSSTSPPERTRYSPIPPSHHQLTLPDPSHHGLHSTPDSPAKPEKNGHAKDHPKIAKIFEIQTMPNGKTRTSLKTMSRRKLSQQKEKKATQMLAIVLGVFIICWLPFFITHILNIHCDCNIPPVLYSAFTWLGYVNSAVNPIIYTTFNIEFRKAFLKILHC

| SMILES | solubility in buffer media (between pH 2 and pH 7.4) | Water solubility (water) | agonist type at dopamine D2 receptor (dopamine D2 receptor) | kinetics [1] | stability in solution ([2]; in solution) | stability in the solid state ([2]; solid state) |
| --- | --- | --- | --- | --- | --- | --- |
| CCCN[C@H]1CCc2nc(N)sc2C1 [Pramipexole dihydrochloride monohydrate, pramipexole dihydrochloride monohydrate] | above 10 mg/ml | more than 20 mg/ml |  |  |  |  |
| CCCN[C@H]1CCc2nc(N)sc2C1 [Pramipexole, (S)-2-Amino-4,5,6,7-tetrahydro-6-(propylamino)benzothiazole] |  |  | full agonist | linear kinetics | light sensitive | very stable |
